Earlier results, collected in patent US9056899B2 (priority 2008, dated 2015).
Values after ≈ are worked out from the molar mass of the structure shown. Like-named read-outs stand apart in the source and are kept apart here.

Assays:
Conditions in all cases: cited from earlier work
[1] = tested on: BW25113 and gene knockouts
[2] = tested on: BW25113 and gene knockouts; remark: listed apart in the source
BW25113 gene knockouts = tested on: BW25113 gene knockouts
[3] = tested on: BW25113 and gene knockouts; remark: listed apart in the source

For `Cc1cc(NS(=O)(=O)c2ccc(N)cc2)no1` [Sulfamethaxazone], the “MIC Plating” value ([1]; BW25113 starting strain) is listed as 1000 µg/mL (≈ 3950 µM), the “MIC Plating” value ([1]; JW5115 knockout) is listed as 400 µg/mL (≈ 1580 µM) and the “MIC Plating” value ([1]; JW5474 knockout) is listed as 500 µg/mL (≈ 1970 µM). The “MIC Plating” value ([1]; dapF knockout) was 300 µg/mL (≈ 1180 µM), the “MIC Plating” value ([1]; dcd knockout) was >550 µg/mL and the “MIC Plating” value ([1]; degP knockout) was 500 µg/mL (≈ 1970 µM). For the same compound, the “MIC Plating” value ([1]; deoT knockout) was 550 µg/mL (≈ 2170 µM), the “MIC Plating” value ([1]; dksA knockout) was 550 µg/mL (≈ 2170 µM) and the “MIC Plating” value ([1]; dnaK knockout) was 300 µg/mL (≈ 1180 µM). For the same compound, the “MIC Plating” value ([1]; envC knockout) was 400 µg/mL (≈ 1580 µM), the “MIC Plating” value ([1]; fis knockout) was 600 µg/mL (≈ 2370 µM) and the “MIC Plating” value ([1]; gpmM knockout) was 400 µg/mL (≈ 1580 µM). For the same compound, the “MIC Plating” value ([1]; hns knockout) was 550 µg/mL (≈ 2170 µM), the “MIC Plating” value ([1]; lpdA knockout) was 400 µg/mL (≈ 1580 µM) and the “MIC Plating” value ([1]; lptB knockout) was 500 µg/mL (≈ 1970 µM). For the same compound, the “MIC Plating” value ([1]; nudB knockout) was 350 µg/mL (≈ 1380 µM), the “MIC Plating” value ([1]; pgmB knockout) was 500 µg/mL (≈ 1970 µM) and the “MIC Plating” value ([1]; pstA knockout) was 550 µg/mL (≈ 2170 µM). The “MIC Plating” value ([1]; pstS knockout) was 550 µg/mL (≈ 2170 µM), the “MIC Plating” value ([1]; qmcA knockout) was 550 µg/mL (≈ 2170 µM) and the “MIC Plating” value ([1]; recA knockout) was 400 µg/mL (≈ 1580 µM). For the same compound, the “MIC Plating” value ([1]; recB knockout) was 350 µg/mL (≈ 1380 µM), the “MIC Plating” value ([1]; recC knockout) was 350 µg/mL (≈ 1380 µM) and the “MIC Plating” value ([1]; recG knockout) was 500 µg/mL (≈ 1970 µM). For the same compound, the “MIC Plating” value ([1]; resA knockout) was >550 µg/mL, the “MIC Plating” value ([1]; rfaE knockout) was 550 µg/mL (≈ 2170 µM) and the “MIC Plating” value ([1]; rimK knockout) was 350 µg/mL (≈ 1380 µM). The “MIC Plating” value ([1]; rplA knockout) was 500 µg/mL (≈ 1970 µM), the “MIC Plating” value ([1]; rpmF knockout) was 550 µg/mL (≈ 2170 µM) and the “MIC Plating” value ([1]; rpsU knockout) was 500 µg/mL (≈ 1970 µM). For the same compound, the “MIC Plating” value ([1]; tolC knockout) was 400 µg/mL (≈ 1580 µM), the “MIC Plating” value ([1]; xapR knockout) was >550 µg/mL and the “MIC Plating” value ([1]; ybeY knockout) was 500 µg/mL (≈ 1970 µM). For the same compound, the “MIC Plating” value ([1]; ybgF knockout) was >550 µg/mL, the “MIC Plating” value ([1]; yciM knockout) was >550 µg/mL and the “MIC Plating” value ([1]; yciS knockout) was 550 µg/mL (≈ 2170 µM). For the same compound, the “MIC Plating” value ([1]; ydjI knockout) was >550 µg/mL, the “MIC Plating” value ([1]; yfgL knockout) was 400 µg/mL (≈ 1580 µM) and the “MIC Plating” value ([1]; ygcO knockout) was 550 µg/mL (≈ 2170 µM). The “MIC Plating” value ([1]; yiiU knockout) was 550 µg/mL (≈ 2170 µM), the “MIC Plating” value ([1]; yjjY knockout) was >550 µg/mL and the “MIC Plating” value ([1]; ylcG knockout) was 500 µg/mL (≈ 1970 µM). For the same compound, the “MIC Plating” value ([1]; ymfI knockout) was 500 µg/mL (≈ 1970 µM) and the “MIC Plating” value ([1]; yneE knockout) was 550 µg/mL (≈ 2170 µM).
For `CN[C@H](CC(C)C)C(=O)N[C@H]1C(=O)N[C@@H](CC(N)=O)C(=O)N[C@H]2C(=O)N[C@H]3C(=O)N[C@H](C(=O)N[C@H](C(=O)O)c4cc(O)cc(O)c4-c4cc3ccc4O)[C@H](O)c3ccc(c(Cl)c3)Oc3cc2cc(c3O[C@@H]2O[C@H](CO)[C@@H](O)[C@H](O)[C@H]2O[C@H]2C[C@](C)(N)[C@H](O)[C@H](C)O2)Oc2ccc(cc2Cl)[C@H]1O` [Vancomycin], the “MIC Plating” value ([2]; BW25113 starting strain) is listed as 500 µg/mL (≈ 345 µM), the “MIC Plating” value ([2]; dksA knockout) is listed as 125 µg/mL (≈ 86.3 µM) and the “MIC Plating” value ([2]; elaD knockout) is listed as 150 µg/mL (≈ 104 µM). The “MIC Plating” value ([2]; envC knockout) was 150 µg/mL (≈ 104 µM), the “MIC Plating” value ([2]; envZ knockout) was 150 µg/mL (≈ 104 µM) and the “MIC Plating” value ([2]; fepC knockout) was 150 µg/mL (≈ 104 µM). For the same compound, the “MIC Plating” value ([2]; hns knockout) was 150 µg/mL (≈ 104 µM), the “MIC Plating” value ([2]; hscB knockout) was 150 µg/mL (≈ 104 µM) and the “MIC Plating” value ([2]; lptB knockout) was 150 µg/mL (≈ 104 µM). For the same compound, the “MIC Plating” value ([2]; msbB knockout) was 150 µg/mL (≈ 104 µM), the “MIC Plating” value ([2]; oxyR knockout) was 150 µg/mL (≈ 104 µM) and the “MIC Plating” value ([2]; pal knockout) was 100 µg/mL (≈ 69 µM). For the same compound, the “MIC Plating” value ([2]; pgmB knockout) was 100 µg/mL (≈ 69 µM), the “MIC Plating” value ([2]; proW knockout) was 150 µg/mL (≈ 104 µM) and the “MIC Plating” value ([2]; rimK knockout) was 150 µg/mL (≈ 104 µM). The “MIC Plating” value ([2]; rpmJ knockout) was 150 µg/mL (≈ 104 µM), the “MIC Plating” value ([2]; rrmJ knockout) was 150 µg/mL (≈ 104 µM) and the “MIC Plating” value ([2]; skp knockout) was 75 µg/mL (≈ 51.8 µM). The “MIC Plating” value ([2]; smpA knockout) was 100 µg/mL (≈ 69 µM), the “MIC Plating” value ([2]; surA knockout) was 8 µg/mL (≈ 5.52 µM) and the “MIC Plating” value ([2]; tonB knockout) was 125 µg/mL (≈ 86.3 µM). The “MIC Plating” value ([2]; tusC knockout) was 150 µg/mL (≈ 104 µM), the “MIC Plating” value ([2]; tusD knockout) was 150 µg/mL (≈ 104 µM) and the “MIC Plating” value ([2]; xapR knockout) was 100 µg/mL (≈ 69 µM). For the same compound, the “MIC Plating” value ([2]; ybgF knockout) was 100 µg/mL (≈ 69 µM), the “MIC Plating” value ([2]; ycbR knockout) was 150 µg/mL (≈ 104 µM) and the “MIC Plating” value ([2]; yciM knockout) was 100 µg/mL (≈ 69 µM). The “MIC Plating” value ([2]; ydfP knockout) was 150 µg/mL (≈ 104 µM), the “MIC Plating” value ([2]; ydjI knockout) was 100 µg/mL (≈ 69 µM) and the “MIC Plating” value ([2]; yfgC knockout) was 150 µg/mL (≈ 104 µM). For the same compound, the “MIC Plating” value ([2]; yfgL knockout) was 150 µg/mL (≈ 104 µM), the “MIC Plating” value ([2]; yhdP knockout) was 125 µg/mL (≈ 86.3 µM) and the “MIC E test” value (BW25113 gene knockouts; lptB knockout) was 2.0 µg/mL (≈ 1.38 µM). The “MIC E test” value (BW25113 gene knockouts; pal knockout) was 96 µg/mL (≈ 66.2 µM), the “MIC E test” value (BW25113 gene knockouts; smpA knockout) was 70 µg/mL (≈ 48.3 µM) and the “MIC E test” value (BW25113 gene knockouts; surA knockout) was 4 µg/mL (≈ 2.76 µM).
For gentamicin, the “MIC Plating” value ([3]; BW25113 starting strain) is given as 0.8 µg/mL, the “MIC Plating” value ([3]; JW5360 knockout) is given as >0.8 µg/mL and the “MIC Plating” value ([3]; dapF knockout) is given as 0.7 µg/mL. For the same compound, the “MIC Plating” value ([3]; envC knockout) was >0.5 µg/mL, the “MIC Plating” value ([3]; gpmM knockout) was 0.7 µg/mL and the “MIC Plating” value ([3]; hflK knockout) was 0.5 µg/mL. The “MIC Plating” value ([3]; rfaC knockout) was 0.7 µg/mL, the “MIC Plating” value ([3]; rffA knockout) was 0.7 µg/mL and the “MIC Plating” value ([3]; rnt knockout) was 0.7 µg/mL. The “MIC Plating” value ([3]; rplI knockout) was 0.7 µg/mL, the “MIC Plating” value ([3]; rpmE knockout) was 0.6 µg/mL and the “MIC Plating” value ([3]; rpoN knockout) was 0.5 µg/mL. For the same compound, the “MIC Plating” value ([3]; sapC knockout) was 0.5 µg/mL, the “MIC Plating” value ([3]; secG knockout) was 0.5 µg/mL and the “MIC Plating” value ([3]; tatC knockout) was 0.5 µg/mL. For the same compound, the “MIC Plating” value ([3]; tolC knockout) was 0.5 µg/mL, the “MIC Plating” value ([3]; tusC knockout) was 0.5 µg/mL and the “MIC Plating” value ([3]; tusD knockout) was 0.5 µg/mL. For the same compound, the “MIC Plating” value ([3]; xapR knockout) was >0.5 µg/mL, the “MIC Plating” value ([3]; yciM knockout) was >0.7 µg/mL and the “MIC Plating” value ([3]; yfgC knockout) was >0.5 µg/mL. For the same compound, the “MIC Plating” value ([3]; yidD knockout) was 0.5 µg/mL.
